Measured values taken from US6518243B1, “Desleucyl glycopeptide antibiotics and methods of making same” (Trustees of Princeton University, priority 1999, dated 2003).

Experiments:
[1] = test system: E. faceium (ATCC 49624); experiment: Zone of inhibition screen, 96 well agar array format;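 also: score 3 means fourfold and score 4 sixteenfold the reference zone size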; type: cell-based, E. faecium; conditions: zone of inhibition relative to 1 mg/ml p-chlorobiphenylvancomycin
Description: The antibacterial activity of each of the compounds against the bacterial strains E. faceium (ATCC 49624), S. epidermidis (ATCC 12228), S. aureus (ATCC 29213), E. faecalis (CL 4877) and E. faecalis (ATCC 292121) was tested. Each of the compounds was screened in a 96 will agar array format.

[2] = test system: E. faecalis (CL 4877); experiment: as above; type: cell-based; design: scale not given here; conditions: zone of inhibition relative to 1 mg/ml p-chlorobiphenylvancomycin
Summary of the method: (§1)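 Read-out is antibacterial activity on agar laid out as a 96-well array; every compound went through all strains of the panel.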

[3] = test system: S. aureus (ATCC 29213); experiment: as above; type: cell-based; design: scale not given here; conditions: zone of inhibition relative to 1 mg/ml p-chlorobiphenylvancomycin
Summary of the method: as §1

[4] = test system: S. epidermidis (ATCC 12228); experiment: as above; type: cell-based; design: scale not given here; conditions: zone of inhibition relative to 1 mg/ml p-chlorobiphenylvancomycin
Summary of the method: as §1

[5] = test system: E. faecium ATCC 49624; experiment: MIC determination in BHI media, OD600; type: cell-based; conditions: BHI + 0.1% casamino acids, 18 hours at 37° C., ≧90% OD600 inhibition
Description: (§2) Logarithmically growing cells were diluted to approximately 5×10^5 CFU/ml and subjected to test compounds solubilized and serially diluted in DMSO. […] After 18 hours at 37° C., the OD600 was determined by reading the ninety-six well microtiter plates on a microplate reader. For a given concentration, an MIC determination was made if: […]

[6] = test system: S aureus ATCC 29213; experiment: MIC determination in BHI media, OD600; type: cell-based; conditions: BHI + 0.1% casamino acids, 18 hours at 37° C., ≧90% OD600 inhibition
Description: as §2

[7] = test system: S. Aureus ATCC 33591; experiment: MIC determination in BHI media, OD600; type: cell-based; conditions: BHI + 0.1% casamino acids, 18 hours at 37° C., ≧90% OD600 inhibition
Description: as §2

Row | SMILES | zone score, E. faecium ATCC 49624 [1] | zone score, E. faecalis CL 4877 [2] | zone score, S. aureus ATCC 29213 [3] | zone score, S. epidermidis ATCC 12228 [4] | MIC E. faecium ATCC 49624 [5] | MIC S. aureus ATCC 29213 [6] | MIC S. aureus ATCC 33591 [7]
1 | CC1OC(OC2C(Oc3c4cc5cc3Oc3ccc(cc3Cl)C(O)C3NC(=O)C(NC(=O)C5NC(=O)C(CC(N)=O)NC(=O)C(NC(=O)CCS(=O)(=O)c5ccccc5)C(O)c5ccc(c(Cl)c5)O4)c4ccc(O)c(c4)-c4c(O)cc(O)cc4C(C(=O)O)NC3=O)OC(CO)C(O)C2O)CC(C)(NCc2ccc(-c3ccc(Cl)cc3)cc2)C1O (stereo not shown) [Compound 246] | 2 | – | – | – | – | – | –
2 | CC1OC(OC2C(Oc3c4cc5cc3Oc3ccc(cc3Cl)C(O)C3NC(=O)C(NC(=O)C5NC(=O)C(CC(N)=O)NC(=O)C(NC(=O)c5ccccc5SCCS(=O)(=O)c5ccc(Cl)cc5)C(O)c5ccc(c(Cl)c5)O4)c4ccc(O)c(c4)-c4c(O)cc(O)cc4C(C(=O)O)NC3=O)OC(CO)C(O)C2O)CC(C)(NCc2ccc(-c3ccc(Cl)cc3)cc2)C1O (stereo not shown) [Compound 301] | – | 2 | 2 | 2 | – | – | –
3 | CC1OC(OC2C(Oc3c4cc5cc3Oc3ccc(cc3Cl)C(O)C3NC(=O)C(NC(=O)C5NC(=O)C(CC(N)=O)NC(=O)C(NC(=O)c5ccccn5)C(O)c5ccc(c(Cl)c5)O4)c4ccc(O)c(c4)-c4c(O)cc(O)cc4C(C(=O)O)NC3=O)OC(CO)C(O)C2O)CC(C)(NCc2ccc(-c3ccc(Cl)cc3)cc2)C1O (stereo not shown) [Compound 312] | – | 2 | 2 | 2 | – | – | –
4 | CC1OC(OC2C(Oc3c4cc5cc3Oc3ccc(cc3Cl)C(O)C3NC(=O)C(NC(=O)C5NC(=O)C(CC(N)=O)NC(=O)C(NC(=O)c5cccc[n+]5[O-])C(O)c5ccc(c(Cl)c5)O4)c4ccc(O)c(c4)-c4c(O)cc(O)cc4C(C(=O)O)NC3=O)OC(CO)C(O)C2O)CC(C)(NCc2ccc(-c3ccc(Cl)cc3)cc2)C1O (stereo not shown) [Compound 313] | – | 2 | 2 | 2 | – | – | –
5 | CC(=O)C(=O)NC1C(=O)NC(CC(N)=O)C(=O)NC2C(=O)NC3C(=O)NC(C(=O)NC(C(=O)O)c4cc(O)cc(O)c4-c4cc3ccc4O)C(O)c3ccc(c(Cl)c3)Oc3cc2cc(c3OC2OC(CO)C(O)C(O)C2OC2CC(C)(NCc3ccc(-c4ccc(Cl)cc4)cc3)C(O)C(C)O2)Oc2ccc(cc2Cl)C1O (stereo not shown) [Compound 314] | – | 2 | 2 | 2 | – | – | –
6 | CC1OC(OC2C(Oc3c4cc5cc3Oc3ccc(cc3Cl)C(O)C3NC(=O)C(NC(=O)C5NC(=O)C(CC(N)=O)NC(=O)C(NC(=O)C=Cc5c[nH]cn5)C(O)c5ccc(c(Cl)c5)O4)c4ccc(O)c(c4)-c4c(O)cc(O)cc4C(C(=O)O)NC3=O)OC(CO)C(O)C2O)CC(C)(NCc2ccc(-c3ccc(Cl)cc3)cc2)C1O (stereo not shown) [Compound 321] | – | 2 | 2 | 2 | – | – | –
7 | COCCC(N)C(=O)NC1C(=O)NC(CC(N)=O)C(=O)NC2C(=O)NC3C(=O)NC(C(=O)NC(C(=O)O)c4cc(O)cc(O)c4-c4cc3ccc4O)C(O)c3ccc(c(Cl)c3)Oc3cc2cc(c3OC2OC(CO)C(O)C(O)C2OC2CC(C)(NCc3ccc(-c4ccc(Cl)cc4)cc3)C(O)C(C)O2)Oc2ccc(cc2Cl)C1O (stereo not shown) [Compound 322] | – | 2 | 2 | 2 | – | – | –
8 | CC(O)C(N)C(=O)NC1C(=O)NC(CC(N)=O)C(=O)NC2C(=O)NC3C(=O)NC(C(=O)NC(C(=O)O)c4cc(O)cc(O)c4-c4cc3ccc4O)C(O)c3ccc(c(Cl)c3)Oc3cc2cc(c3OC2OC(CO)C(O)C(O)C2OC2CC(C)(NCc3ccc(-c4ccc(Cl)cc4)cc3)C(O)C(C)O2)Oc2ccc(cc2Cl)C1O (stereo not shown) [Compound 323] | – | 2 | 2 | 2 | – | – | –
9 | CNC(COCc1ccccc1)C(=O)NC1C(=O)NC(CC(N)=O)C(=O)NC2C(=O)NC3C(=O)NC(C(=O)NC(C(=O)O)c4cc(O)cc(O)c4-c4cc3ccc4O)C(O)c3ccc(c(Cl)c3)Oc3cc2cc(c3OC2OC(CO)C(O)C(O)C2OC2CC(C)(NCc3ccc(-c4ccc(Cl)cc4)cc3)C(O)C(C)O2)Oc2ccc(cc2Cl)C1O (stereo not shown) [Compound 331] | – | – | – | – | 0.39 µg/mL | 0.78 µg/mL | 0.78 µg/mL
10 | CC1OC(OC2C(Oc3c4cc5cc3Oc3ccc(cc3Cl)C(O)C3NC(=O)C(NC(=O)C5NC(=O)C(CC(N)=O)NC(=O)C(NC(=O)C(N)Cc5c[nH]cn5)C(O)c5ccc(c(Cl)c5)O4)c4ccc(O)c(c4)-c4c(O)cc(O)cc4C(C(=O)O)NC3=O)OC(CO)C(O)C2O)CC(C)(NCc2ccc(-c3ccc(Cl)cc3)cc2)C1O (stereo not shown) [Compound 555] | – | – | – | – | 0.39 µg/mL | 0.78 µg/mL | 0.39 µg/mL
